Assay results reported in PubChem BioAssay (NCI).
“And” between values parts separate entries of the source, which are not always exact repeats. Identical values can stand only once.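 1) Cells in 96-well plates. 2) Compound, 48 h, 5 concentrations. 3) Linear interpolation between surrounding doses. 4) Unreached endpoint = highest concentration. GI50: concentration for 50% inhibition of growth. TGI: concentration producing complete growth inhibition.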

Tests used:
Test in all cases: DTP human tumour cell line panel, 48 h
SN12C renal = test system: SN12C renal
UACC-257 melanoma = test system: UACC-257 melanoma
NCI-H23 lung = test system: NCI-H23 lung
CAKI-1 renal = test system: CAKI-1 renal
SF-295 CNS = test system: SF-295 CNS
OVCAR-5 ovarian = test system: OVCAR-5 ovarian
IGROV1 ovarian = test system: IGROV1 ovarian
SNB-75 CNS = test system: SNB-75 CNS
NCI-H460 lung = test system: NCI-H460 lung
SNB-19 CNS = test system: SNB-19 CNS

| SMILES | TGI (SN12C renal) | TGI (UACC-257 melanoma) | TGI (NCI-H23 lung) | TGI (CAKI-1 renal) | TGI (SF-295 CNS) | TGI (OVCAR-5 ovarian) | TGI (IGROV1 ovarian) | TGI (SNB-75 CNS) | TGI (NCI-H460 lung) | TGI (SNB-19 CNS) | GI50 (SN12C renal) | GI50 (UACC-257 melanoma) | GI50 (NCI-H23 lung) | GI50 (CAKI-1 renal) | GI50 (SF-295 CNS) | GI50 (OVCAR-5 ovarian) | GI50 (IGROV1 ovarian) | GI50 (SNB-75 CNS) | GI50 (NCI-H460 lung) | GI50 (SNB-19 CNS) |
| --- | --- | --- | --- | --- | --- | --- | --- | --- | --- | --- | --- | --- | --- | --- | --- | --- | --- | --- | --- | --- |
| NC(C(=O)O)c1ccc(C(=O)O)cc1 (stereo not given) | > 100 µM | > 100 µM | > 100 µM | > 100 µM | > 100 µM | > 100 µM | > 100 µM | > 100 µM | > 100 µM | > 100 µM |  |  |  |  |  |  |  |  |  |  |
| O=C1OC(=O)C2C1C1C(c3ccccc3)=C(c3ccccc3)C2(O)C2C(=O)OC(=O)C12 (stereo not given) | > 100 µM | > 100 µM | > 100 µM | > 100 µM | > 100 µM | > 100 µM | > 100 µM | > 100 µM | > 100 µM | > 100 µM |  |  |  |  |  |  |  |  |  |  |
| COC(=O)C(C(=O)C(=O)Nc1ccc(N)cc1[N+](=O)[O-])c1nc2ccc(Cl)cc2[nH]c1=O (stereo not given) | > 100 µM | > 100 µM | > 100 µM | > 100 µM | > 100 µM | > 100 µM | > 100 µM | > 100 µM | > 100 µM | > 100 µM |  |  |  |  |  |  |  |  |  |  |
| CCC(=O)Oc1ccc(/C=N/NC(N)=S)nc1 | > 100 µM | > 100 µM | > 100 µM | > 100 µM | > 100 µM | > 100 µM | > 100 µM | > 100 µM | 46.6 µM | > 100 µM | 3.75 µM | 21.5 µM | 2.48 µM | 4.97 µM | 12.3 µM | 34 µM | 9.94 µM | 6.13 µM | 4.04 µM | 14.2 µM |
| O=[N+]([O-])c1ccc2nc(=S)[nH]n2c1 | > 100 µM | > 100 µM | > 100 µM | > 100 µM | > 100 µM | > 100 µM | > 100 µM | > 100 µM | > 100 µM | > 100 µM |  |  |  |  |  |  |  |  |  |  |
| CC(C)CC1NC(=O)C(C(C)C)NC(=O)CC(C)COC(=O)C(CC(C)C)N(C)C(=O)C(C(C)C)NC(=O)C(C(C)C)OC1=O (stereo not given) | > 50 µM | > 50 µM | > 50 µM | > 50 µM | > 50 µM | > 50 µM | > 50 µM | 30.2 µM | > 50 µM | > 50 µM |  |  |  |  |  |  |  |  |  |  |
| O=C1C=C(OCC=C(Cl)Cl)C(=O)c2ccccc21 | 8.27 µM | 11 µM | > 85 µM | > 100 µM | > 65.8 µM | > 82.1 µM | 23.5 µM | 56.9 µM | > 100 µM | > 100 µM | 2.61 µM | 2.15 µM | 3.63 µM | 23.3 µM | 12.7 µM | 8.92 µM | 4.04 µM | 7.4 µM | 39.3 µM | > 91.1 µM |
| CC(=O)Nc1ccccc1S(=O)c1ccccc1 (stereo not given) | > 100 µM | > 100 µM | > 100 µM | > 100 µM | > 100 µM | > 100 µM | > 100 µM | > 100 µM | > 100 µM | > 100 µM |  |  |  |  |  |  |  |  |  |  |
| CCOc1ccccc1NC(=O)C(=O)c1c(O)c2ccc(O)cc2oc1=O | > 100 µM | > 100 µM | > 100 µM | > 100 µM | > 100 µM | > 100 µM | > 100 µM | > 100 µM | > 100 µM | > 100 µM |  |  |  |  |  |  |  |  |  |  |
| CC(=O)CC(=O)ON(C)C(=O)Cc1ccccc1 | > 100 µM | > 100 µM | > 100 µM | > 100 µM | > 100 µM | > 100 µM | > 100 µM | > 100 µM | > 100 µM | > 100 µM |  |  |  |  |  |  |  |  |  |  |
| CN(C)c1ccc(/C=N/NC(=O)c2cnc3ccccc3c2)cc1 | > 100 µM | > 100 µM | > 100 µM | > 100 µM | > 100 µM | > 100 µM | > 100 µM | 50.6 µM | > 100 µM | > 100 µM |  |  |  |  |  |  |  |  |  |  |
| CC1(C)N=C(N)N=C(N)N1c1ccc(CCC(=O)Nc2cccc(S(=O)(=O)F)c2)cc1 | > 100 µM | > 100 µM | > 100 µM | > 100 µM | > 100 µM | > 100 µM | 5 µM | > 100 µM | > 100 µM | > 100 µM | 4.67 µM | 4.09 µM | 7.78 µM | > 100 µM | 7.75 µM | > 100 µM | 1.09 µM | 5.34 µM | 3.04 µM | 7.37 µM |
| COc1ccc2c(c1)NC(=O)CN2c1nc(C)nc2ccccc12 | > 100 µM |  | > 100 µM | > 100 µM |  | > 100 µM | 74.9 µM | > 100 µM | > 100 µM | > 100 µM | 0.00101 µM |  | 0.000458 µM | 0.000497 µM | 0.000318 µM |  | 0.000829 µM | 0.00036 µM | 0.000397 µM | 0.000655 µM |
| N#CC(CC(=O)O)=C(c1ccccc1)c1ccccc1 | > 100 µM | > 100 µM | > 100 µM | > 100 µM | > 100 µM | > 100 µM | > 100 µM | > 100 µM | > 100 µM | > 100 µM |  |  |  |  |  |  |  |  |  |  |
| NC(N)=NC(N)=NCc1ccco1 | > 1250 µM | > 1250 µM | > 1250 µM | > 1250 µM | > 1250 µM | > 1250 µM | > 1250 µM | > 1250 µM | > 1250 µM | > 1250 µM | > 1250 µM | 843 µM and 565 µM | 869 µM and 661 µM | 758 µM | 321 µM | > 1250 µM | 854 µM | > 1250 µM | 866 µM and 766 µM | > 1250 µM |
| ClCCCN1CCCCC1CCl (stereo not given) | > 100 µM |  | > 100 µM | > 100 µM | > 100 µM | > 100 µM | > 100 µM | > 100 µM | > 100 µM | > 100 µM |  |  |  |  |  |  |  |  |  |  |
| C#Cc1ccccc1N1C(=O)C=CC1=O | > 100 µM | > 100 µM | > 100 µM | > 100 µM | > 100 µM | > 100 µM | > 100 µM | > 100 µM | > 100 µM | > 100 µM |  |  |  |  |  |  |  |  |  |  |
| CC1CCC2[C@@H](C)COC3O[C@]4(C)CCC1C32OO4 (stereo not given in full) | > 100 µM | > 100 µM | > 100 µM | > 100 µM | > 100 µM | > 100 µM | > 100 µM | > 100 µM | > 100 µM | > 100 µM |  |  |  |  |  |  |  |  |  |  |
